pIC50: −log10 of the molar value.
Legend:
EGFR (L858R/T790M/C797S) = EGFR (L858R/T790M/C797S) (Homo sapiens, UniProt P00533, C797S/L858R/T790M); assay: HotSpot radiometric kinase assay, inhibition of EGFR L858R/T790M/C797S mutant; assay type: biochemical; conditions: 33P ATP, room temperature, 120 m
In short: (§1)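 Kinase/substrate pairs in 20 mM HEPES pH 7.5, 10 mM MgCl2, 1 mM EGTA, 0.02% Brij35, 0.02 mg/ml BSA, 0.1 mM Na3VO4, 2 mM DTT, 1% DMSO, preincubated ~20 min with compound. Reaction started with ATP/33P-ATP ([…]), run 120 min at room temperature; phosphorylation read by P81 filter binding, IC50 from curve fits.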

PC-9 cells = assay: 5-Day CellTiter Glo (CTG) cell proliferation assay, PC-9; assay type: cell-based; conditions: Homo sapiens; PC-9 cells (d746-750 EGFR), 5-day CTG proliferation, 120 hours; read-out: PC-9 IC50
In short: (§2)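 Luminescent ATP signal (CellTiter-Glo 2.0) after 120 hours of compound exposure gave IC50 values. PC-9 and HCC827 harbour EGFR d746-750; NCI-H1975 harbours L858R/T790M.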

[1] = target: T1, pEGFR, NCI-H1975 cells (L858R/T790M EGFR) (Homo sapiens, UniProt P00533, L858R/T790M); assay: Cellular EGFR phosphorylation assay (LANCE Ultra TR-FRET) in NCI-H1975 cells; assay type: cell-based; conditions: 4 hours at 37° C., read-out: H1975 pEGFR IC50
T1 construct: pEGFR (Tyr1068) TR-FRET
In short: (§3)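 Measured in intact cells exposed to compound for 4 hours, with A431 given EGF at 40 ng/mL for the closing 10 minutes; a TR-FRET antibody pair quantified phospho-Tyr1068 EGFR in lysates (4-6 h detection at room temperature), giving IC50.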

[2] = target: T2, pEGFR, PC-9 cells (d746-750 EGFR) (Homo sapiens, UniProt P00533, DEL746-750); assay: Cellular EGFR phosphorylation assay (LANCE Ultra TR-FRET) in PC-9 cells; assay type: cell-based; conditions: 4 hours at 37° C., read-out: PC-9 pEGFR IC50
T2 construct: pEGFR (Tyr1068) TR-FRET
In short: as §3

NCI-H1975 cells = assay: 5-Day CellTiter Glo (CTG) cell proliferation assay, NCI-H1975; assay type: cell-based; conditions: Homo sapiens; NCI-H1975 cells (L858R/T790M EGFR), 5-day CTG proliferation, 120 hours; read-out: H1975 IC50
In short: as §2

EGFR (L858R) = EGFR (L858R) (Homo sapiens, UniProt P00533, L858R); assay: HotSpot radiometric kinase assay, inhibition of EGFR L858R mutant; assay type: biochemical; conditions: 33P ATP, room temperature, 120 m
Protocol: (§4) Biochemical Assays for inhibition of wild-type and mutant EGFRs
(§5) Briefly, specific kinase/substrate pairs along with required cofactors were prepared in reaction buffer; 20 mM HEPES pH 7.5, 10 mM […], 1 mM EGTA, 0.02% Brij35, 0.02 mg/ml BSA, 0.1 mM Na3VO4, 2 mM DTT, 1% DMSO. Compounds were delivered into the reaction, followed ~20 minutes later by addition of a mixture of ATP (Sigma, St. Louis MO) and ^33P ATP (Perkin Elmer, Waltham MA) to a final concentration of […]. Reactions were carried out at room temperature for 120 m, followed by spotting of the reactions onto P81 ion exchange filter paper (Whatman Inc., Piscataway, NJ). Unbound phosphate was removed by extensive washing of filters in 0.75% phosphoric acid. […] IC50 values and curve fits were obtained using Prism (GraphPad Software).

[3] = tested on: BaF3 cells with engineered EGFR L858R/C797S; assay: 3-Day CellTiter Glo (CTG) cell proliferation assay, BaF3 EGFR L858R/C797S; assay type: cell-based; conditions: Mus musculus, 3-day CTG proliferation, 72 hours
In short: (§6)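 Growth inhibition in transgene-bearing BaF3 lines was scored after three days of compound treatment by CellTiter-Glo 2.0 ATP luminescence, yielding IC50 values.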

EGFR (L858R/T790M) = EGFR (L858R/T790M) (Homo sapiens, UniProt P00533, L858R/T790M); assay: HotSpot radiometric kinase assay, inhibition of EGFR L858R/T790M mutant; assay type: biochemical; conditions: 33P ATP, room temperature, 120 m
Protocol: as §4, §5

EGFR (D746-750/C797S) = EGFR (D746-750/C797S) (Homo sapiens, UniProt P00533, C797S/DEL746-750); assay: HotSpot radiometric kinase assay, inhibition of EGFR 746-750/C797S mutant; assay type: biochemical; conditions: 33P ATP, room temperature, 120 m
In short: as §1

HCC827 cells = assay: 5-Day CellTiter Glo (CTG) cell proliferation assay, HCC827; assay type: cell-based; conditions: Homo sapiens; HCC827 cells (d746-750 EGFR), 5-day CTG proliferation, 120 hours; read-out: HCC827 IC50
In short: as §2

EGFR WT = EGFR WT (Homo sapiens, UniProt P00533); assay: HotSpot radiometric kinase assay, inhibition of EGFR WT; assay type: biochemical; conditions: 33P ATP, room temperature, 120 m
Protocol: as §4, §5

[4] = tested on: BaF3 cells with engineered EGFR L858R/T790M/C797S; assay: 3-Day CellTiter Glo (CTG) cell proliferation assay, BaF3 EGFR L858R/T790M/C797S; assay type: cell-based; conditions: Mus musculus, 3-day CTG proliferation, 72 hours
In short: as §6

EGFR (D746-750) = EGFR (D746-750) (Homo sapiens, UniProt P00533, DEL746-750); assay: HotSpot radiometric kinase assay, inhibition of EGFR 746-750 mutant; assay type: biochemical; conditions: 33P ATP, room temperature, 120 m
In short: as §1

[5] = tested on: BaF3 cells with engineered EGFR d746-750/T790M; assay: 3-Day CellTiter Glo (CTG) cell proliferation assay, BaF3 EGFR d746-750/T790M; assay type: cell-based; conditions: Mus musculus; BaF3 EGFR d746-750/T790M cells, 3-day CTG proliferation, 72 hours
In short: as §6

[6] = target: T3, pEGFR, A431 cells (wildtype EGFR) (Homo sapiens, UniProt P00533); assay: Cellular EGFR phosphorylation assay (LANCE Ultra TR-FRET) in A431 cells; assay type: cell-based; conditions: 4 hours at 37° C., 40 ng/mL EGF for the final 10 minutes, read-out: A431 pEGFR IC50
T3 construct: pEGFR (Tyr1068) TR-FRET
In short: as §3

EGFR (D770_N771insNPG) = EGFR (D770_N771insNPG) (Homo sapiens, UniProt P00533, INS770NPG); assay: HotSpot radiometric kinase assay, inhibition of EGFR (D770_N771insNPG) mutant; assay type: biochemical; conditions: 33P ATP, room temperature, 120 m
In short: as §1

EGFR (L858R/T790M/C797S), sequence (P00533 25-1210 T790M/C797S/L858R): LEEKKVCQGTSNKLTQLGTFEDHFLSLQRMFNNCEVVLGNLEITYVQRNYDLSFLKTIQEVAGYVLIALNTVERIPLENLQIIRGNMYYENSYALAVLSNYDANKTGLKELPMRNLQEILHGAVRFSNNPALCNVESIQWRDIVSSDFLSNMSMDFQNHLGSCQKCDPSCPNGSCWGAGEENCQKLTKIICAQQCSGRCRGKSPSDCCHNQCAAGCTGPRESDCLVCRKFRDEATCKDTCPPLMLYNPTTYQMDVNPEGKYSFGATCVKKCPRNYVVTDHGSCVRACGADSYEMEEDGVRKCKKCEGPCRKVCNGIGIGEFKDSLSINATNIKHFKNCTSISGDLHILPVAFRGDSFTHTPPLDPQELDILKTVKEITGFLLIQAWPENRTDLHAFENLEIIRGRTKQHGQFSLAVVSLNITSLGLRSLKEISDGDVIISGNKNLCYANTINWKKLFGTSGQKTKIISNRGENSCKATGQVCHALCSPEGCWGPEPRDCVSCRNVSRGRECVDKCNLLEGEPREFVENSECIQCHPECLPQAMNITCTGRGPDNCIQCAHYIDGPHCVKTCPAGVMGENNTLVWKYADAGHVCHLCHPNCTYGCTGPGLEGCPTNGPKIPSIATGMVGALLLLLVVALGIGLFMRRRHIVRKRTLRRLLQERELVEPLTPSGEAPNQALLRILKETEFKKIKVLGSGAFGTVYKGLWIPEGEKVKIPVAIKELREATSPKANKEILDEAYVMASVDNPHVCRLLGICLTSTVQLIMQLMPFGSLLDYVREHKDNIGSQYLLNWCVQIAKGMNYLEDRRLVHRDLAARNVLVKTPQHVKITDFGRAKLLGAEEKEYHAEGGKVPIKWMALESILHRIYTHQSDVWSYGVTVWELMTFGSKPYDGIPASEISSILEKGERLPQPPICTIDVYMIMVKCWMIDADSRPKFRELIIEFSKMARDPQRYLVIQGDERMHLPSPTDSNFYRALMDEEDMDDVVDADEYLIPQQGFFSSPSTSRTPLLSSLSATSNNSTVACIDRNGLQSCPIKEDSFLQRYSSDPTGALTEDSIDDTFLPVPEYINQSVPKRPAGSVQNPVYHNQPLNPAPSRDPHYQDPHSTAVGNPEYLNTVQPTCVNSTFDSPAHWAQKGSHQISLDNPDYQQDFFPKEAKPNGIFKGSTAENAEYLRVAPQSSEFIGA
EGFR (L858R), sequence (P00533 25-1210 L858R): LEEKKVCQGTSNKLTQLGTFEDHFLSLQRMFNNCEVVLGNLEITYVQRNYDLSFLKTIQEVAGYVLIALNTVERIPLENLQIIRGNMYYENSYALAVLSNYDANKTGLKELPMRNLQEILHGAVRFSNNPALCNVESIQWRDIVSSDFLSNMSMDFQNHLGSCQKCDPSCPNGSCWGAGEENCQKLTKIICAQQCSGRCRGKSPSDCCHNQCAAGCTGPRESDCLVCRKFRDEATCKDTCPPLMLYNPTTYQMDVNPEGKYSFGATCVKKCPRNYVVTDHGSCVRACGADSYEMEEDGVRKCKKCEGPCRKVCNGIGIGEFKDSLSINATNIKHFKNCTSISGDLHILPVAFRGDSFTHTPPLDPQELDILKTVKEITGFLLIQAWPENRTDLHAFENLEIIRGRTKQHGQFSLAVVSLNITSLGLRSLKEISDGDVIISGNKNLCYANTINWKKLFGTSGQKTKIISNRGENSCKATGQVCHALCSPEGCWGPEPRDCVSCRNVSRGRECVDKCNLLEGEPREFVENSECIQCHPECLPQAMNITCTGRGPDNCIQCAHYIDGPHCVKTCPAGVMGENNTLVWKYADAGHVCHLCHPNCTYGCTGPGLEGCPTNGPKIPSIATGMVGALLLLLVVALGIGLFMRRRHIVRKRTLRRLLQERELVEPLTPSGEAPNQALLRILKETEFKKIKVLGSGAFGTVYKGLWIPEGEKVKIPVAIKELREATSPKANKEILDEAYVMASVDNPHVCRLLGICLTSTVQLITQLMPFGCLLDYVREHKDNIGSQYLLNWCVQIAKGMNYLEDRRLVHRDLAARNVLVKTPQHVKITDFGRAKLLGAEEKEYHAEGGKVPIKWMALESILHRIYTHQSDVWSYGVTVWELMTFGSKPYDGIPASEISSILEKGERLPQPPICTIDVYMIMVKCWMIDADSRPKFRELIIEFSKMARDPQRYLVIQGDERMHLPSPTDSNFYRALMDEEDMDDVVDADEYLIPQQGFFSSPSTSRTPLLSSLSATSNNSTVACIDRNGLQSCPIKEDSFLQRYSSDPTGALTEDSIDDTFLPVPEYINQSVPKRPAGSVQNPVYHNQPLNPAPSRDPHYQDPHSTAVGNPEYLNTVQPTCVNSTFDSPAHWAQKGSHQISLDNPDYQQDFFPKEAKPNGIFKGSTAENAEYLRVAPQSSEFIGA
EGFR (D746-750/C797S), sequence (P00533 with tags, fused parts or gaps DEL746-750/C797S): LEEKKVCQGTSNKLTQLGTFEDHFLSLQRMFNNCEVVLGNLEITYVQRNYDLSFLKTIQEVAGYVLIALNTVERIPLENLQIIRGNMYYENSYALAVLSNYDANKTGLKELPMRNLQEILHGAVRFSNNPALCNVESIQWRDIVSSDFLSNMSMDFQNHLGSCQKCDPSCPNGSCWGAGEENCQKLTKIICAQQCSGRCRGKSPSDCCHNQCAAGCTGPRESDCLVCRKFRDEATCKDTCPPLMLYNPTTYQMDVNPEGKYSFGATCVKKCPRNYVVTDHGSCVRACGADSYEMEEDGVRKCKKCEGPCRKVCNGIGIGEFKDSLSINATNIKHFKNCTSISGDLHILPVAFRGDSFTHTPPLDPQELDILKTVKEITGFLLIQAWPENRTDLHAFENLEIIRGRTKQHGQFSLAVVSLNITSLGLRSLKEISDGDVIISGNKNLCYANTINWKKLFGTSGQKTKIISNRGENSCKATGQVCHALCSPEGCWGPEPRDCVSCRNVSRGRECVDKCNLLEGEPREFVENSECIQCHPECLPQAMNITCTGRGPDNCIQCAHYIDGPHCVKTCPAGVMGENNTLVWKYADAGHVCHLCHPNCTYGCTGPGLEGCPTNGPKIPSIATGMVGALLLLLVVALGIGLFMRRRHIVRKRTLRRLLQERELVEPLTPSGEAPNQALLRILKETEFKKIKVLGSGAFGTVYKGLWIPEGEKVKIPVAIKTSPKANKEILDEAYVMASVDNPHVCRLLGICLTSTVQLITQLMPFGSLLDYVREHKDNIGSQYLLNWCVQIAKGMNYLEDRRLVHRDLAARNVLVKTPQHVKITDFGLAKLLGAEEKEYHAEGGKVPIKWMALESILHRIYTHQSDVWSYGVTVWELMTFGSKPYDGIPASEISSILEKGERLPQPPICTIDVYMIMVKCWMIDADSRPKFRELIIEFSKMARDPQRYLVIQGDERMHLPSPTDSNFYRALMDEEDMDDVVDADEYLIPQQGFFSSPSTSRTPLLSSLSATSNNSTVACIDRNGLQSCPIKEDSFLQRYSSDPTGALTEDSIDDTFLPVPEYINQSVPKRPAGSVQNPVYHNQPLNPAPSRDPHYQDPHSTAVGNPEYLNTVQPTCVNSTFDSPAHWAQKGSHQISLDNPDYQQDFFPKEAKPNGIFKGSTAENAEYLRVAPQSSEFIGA
EGFR (L858R/T790M), sequence (P00533 25-1210 T790M/L858R): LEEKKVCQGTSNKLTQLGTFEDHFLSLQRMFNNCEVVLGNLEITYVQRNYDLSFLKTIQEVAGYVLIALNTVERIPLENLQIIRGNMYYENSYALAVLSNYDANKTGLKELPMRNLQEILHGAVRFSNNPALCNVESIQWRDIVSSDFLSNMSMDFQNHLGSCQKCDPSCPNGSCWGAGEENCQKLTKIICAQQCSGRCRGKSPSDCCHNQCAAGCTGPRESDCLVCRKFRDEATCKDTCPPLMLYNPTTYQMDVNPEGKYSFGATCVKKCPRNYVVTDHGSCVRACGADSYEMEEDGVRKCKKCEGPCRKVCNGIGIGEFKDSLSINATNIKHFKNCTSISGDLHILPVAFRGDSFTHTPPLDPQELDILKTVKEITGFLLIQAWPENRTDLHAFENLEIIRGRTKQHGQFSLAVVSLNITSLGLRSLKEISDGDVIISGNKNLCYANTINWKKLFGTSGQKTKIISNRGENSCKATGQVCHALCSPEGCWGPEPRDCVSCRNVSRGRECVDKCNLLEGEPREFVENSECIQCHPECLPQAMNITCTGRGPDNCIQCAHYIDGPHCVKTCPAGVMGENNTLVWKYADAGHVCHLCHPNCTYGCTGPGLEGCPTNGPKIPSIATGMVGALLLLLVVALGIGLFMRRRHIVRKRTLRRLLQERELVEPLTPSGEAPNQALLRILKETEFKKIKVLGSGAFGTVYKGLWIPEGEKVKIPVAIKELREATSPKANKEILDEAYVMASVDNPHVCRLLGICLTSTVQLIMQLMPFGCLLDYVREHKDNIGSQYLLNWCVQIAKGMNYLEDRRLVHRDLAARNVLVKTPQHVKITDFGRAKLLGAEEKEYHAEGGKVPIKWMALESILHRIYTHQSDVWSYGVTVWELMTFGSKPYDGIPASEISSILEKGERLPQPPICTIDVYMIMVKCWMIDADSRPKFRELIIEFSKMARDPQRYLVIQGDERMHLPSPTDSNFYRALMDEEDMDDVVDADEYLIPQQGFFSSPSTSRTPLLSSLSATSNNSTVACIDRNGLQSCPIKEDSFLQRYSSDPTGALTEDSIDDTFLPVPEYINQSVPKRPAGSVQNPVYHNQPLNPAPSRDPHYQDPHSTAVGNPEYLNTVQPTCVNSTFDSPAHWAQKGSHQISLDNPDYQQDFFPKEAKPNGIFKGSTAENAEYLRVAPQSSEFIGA

pIC50 (EGFR (L858R/T790M/C797S)) | pIC50 (PC-9 cells) | pIC50 [1] | pIC50 [2] | pIC50 (NCI-H1975 cells) | pIC50 (EGFR (L858R)) | pIC50 [3] | pIC50 (EGFR (L858R/T790M)) | pIC50 (EGFR (D746-750/C797S)) | pIC50 (HCC827 cells) | pIC50 (EGFR WT) | pIC50 [4] | pIC50 (EGFR (D746-750)) | pIC50 [5] | pIC50 [6] | pIC50 (EGFR (D770_N771insNPG)) | Structure (SMILES)
9.52 | 7.94 | 9.03 | 8.44 | 8.98 | 9.14 | 9.77 | 9.52 | 9.19 | 8.95 | 9.66 | 9.13 | 9.70 | 9.05 | 7.86 | 9.54 | CCOc1nn(CCO)c2c1/C=C/c1n[nH]c3c(C)nc(cc13)-c1cnn(C)c1O[C@@H](C)CN(C)C2 [Ex. 29, 2-[(10S,17E)-16-ethoxy-8,10,12,20-tetramethyl-2,8,10,11,12,13-hexahydro-14H-5,3-(azenometheno)tripyrazolo[3,4-f:3′,4′-j:4″,3″-30n][1,4]oxazacyclopentadecin-14-yl]ethan-1-ol]
9.72 | 9.42 | 8.68 | 9.00 | 8.37 | 9.80 | 10.00 | 9.70 | 9.80 | 9.59 | 10.30 | 8.98 | 9.39 | 8.84 | 7.92 | 10.15 | CCN1Cc2c(c(C)nn2CCO)/C=C/c2n[nH]c3cnc(cc23)-c2c(C)nn(C)c2O[C@@H](C)C1 [Ex. 13, 2-[(10S,17E)-12-ethyl-6,8,10,16-tetramethyl-2,8,10,11,12,13-hexahydro-14H-5,3-(azenometheno)tripyrazolo[3,4-f:3′,4′-j:4″,3″-n][1,4]oxazacyclopentadecin-14-yl]ethan-1-ol]
9.07 | 7.26 | 8.19 | 7.83 | 7.53 | 8.82 | 8.89 | 8.88 | 8.81 | 8.35 | 8.74 | 8.74 | 8.90 | 8.35 | 7.44 | 8.42 | CC(C)Oc1nn(CCO)c2c1/C=C/c1n[nH]c3cnc(cc13)-c1cnn(C)c1O[C@H](C)CN(C(C)C)C2 [Ex. 3, 2-[(10R,17E)-8,10-dimethyl-12-(propan-2-yl)-16-[(propan-2-yl)oxy]-2,8,10,11,12,13-hexahydro-14H-5,3-(azenometheno)tripyrazolo[3,4-f:3′,4′-j:4″,3″-n][1,4]oxazacyclopentadecin-14-yl]ethan-1-ol]

The remaining lines, values behind:

Structure (SMILES) | pIC50 (EGFR (L858R/T790M/C797S)) | pIC50 (PC-9 cells) | pIC50 [1] | pIC50 [2] | pIC50 (NCI-H1975 cells) | pIC50 (EGFR (L858R)) | pIC50 [3] | pIC50 (EGFR (L858R/T790M)) | pIC50 (EGFR (D746-750/C797S)) | pIC50 (HCC827 cells) | pIC50 (EGFR WT) | pIC50 [4] | pIC50 (EGFR (D746-750)) | pIC50 [5] | pIC50 [6] | pIC50 (EGFR (D770_N771insNPG))
CCOc1nn(CCO)c2c1/C=C/c1n[nH]c3cnc(cc13)-c1c(C)nn(C)c1OC[C@H](C)N(CC)C2 [Ex. 16, 2-[(11S,17E)-16-ethoxy-12-ethyl-6,8,11-trimethyl-2,8,10,11,12,13-hexahydro-14H-5,3-(azenometheno)tripyrazolo[3,4-f:3′,4′-j:4″,3″-n][1,4]oxazacyclopentadecin-14-yl]ethan-1-ol] | 8.34 | 8.25 | 8.28 | 8.36 | 7.57 | 9.21 | 9.47 | 8.86 | 8.84 | 9.06 | 9.35 | 8.71 | 9.18 | 9.18 | 7.70 | 9.17
CCOc1nn([C@@H](C)CO)c2c1/C=C/c1n[nH]c3cnc(cc13)-c1c(C)nn(C)c1O[C@H](C)CN(CC)C2 [Ex. 24, (2S)-2-[(10R,17E)-16-ethoxy-12-ethyl-6,8,10-trimethyl-2,8,10,11,12,13-hexahydro-14H-5,3-(azenometheno)tripyrazolo[3,4-f:3′,4′-j:4″,3″-n][1,4]oxazacyclopentadecin-14-yl]propan-1-ol] | 9.24 | 9.33 | 8.80 | 8.82 | 8.90 | 8.77 | 9.96 | 9.03 | 8.97 | 9.57 | 9.30 | 9.11 | 9.29 | 9.39 | 7.65 | 9.21
CCOc1nn([C@@H](C)CO)c2c1/C=C/c1n[nH]c3cnc(cc13)-c1c(C)nn(C)c1O[C@@H](C)CN(C1CC1)C2 [Ex. 110, (2S)-2-[(10S,17E)-12-cyclopropyl-16-ethoxy-6,8,10-trimethyl-2,8,10,11,12,13-hexahydro-14H-5,3-(azenometheno)tripyrazolo[3,4-f:3′,4′-j:4″,3″-n][1,4]oxazacyclopentadecin-14-yl]propan-1-ol] | 9.60 | 9.33 | 8.75 | 8.95 | 8.97 | 9.44 | 10.15 | 9.30 | 9.25 | 9.51 | 10.05 | 9.15 | 9.34 | 9.21 | 8.85 | 9.74
CCOc1nn([C@@H](C)CO)c2c1/C=C/c1n[nH]c3c(C)nc(cc13)-c1c(C)nn(C)c1O[C@@H](C)CN(C)C2 [Ex. 54, (2S)-2-[(10S,17E)-16-ethoxy-6,8,10,12,20-pentamethyl-2,8,10,11,12,13-hexahydro-14H-5,3-(azenometheno)tripyrazolo[3,4-f:3′,4′-j:4″,3″-n][1,4]oxazacyclopentadecin-14-yl]propan-1-ol] | 9.19 | 9.11 | 9.03 | 9.17 | 9.00 | 9.49 | 10.22 | 8.98 | 9.32 | 9.39 | 9.42 | 9.26 | 9.17 | 9.26 | 7.97 | 9.26
CCOc1nn([C@@H](C)CO)c2c1/C=C/c1n[nH]c3cnc(cc13)-c1c(C)nn(C)c1OC[C@H](C)N(CC)C2 [Ex. 25, (2S)-2-[(11S,17E)-16-ethoxy-12-ethyl-6,8,11-trimethyl-2,8,10,11,12,13-hexahydro-14H-5,3-(azenometheno)tripyrazolo[3,4-f:3′,4′-j:4″,3″-n][1,4]oxazacyclopentadecin-14-yl]propan-1-ol] | 9.29 | 8.53 | 8.71 | 8.91 | 7.99 | 8.73 | 9.89 | 8.86 | 8.99 | 9.34 | 9.26 | 9.07 | 9.29 | 9.20 | 7.75 | 8.91

Source: US20260317344A1, “EGFR INHIBITORS FOR TREATING DISEASE” (BLOSSOMHILL THERAPEUTICS, INC., priority 2023, published 2026)
